Measured values: article PMC3674748, “High-level expression and characterization of a chimeric lipase from Rhizopus oryzae for biodiesel production” (Biotechnology for Biofuels, 2013)

What was measured:
r28ROL = target: T1, r28ROL (Rhizopus arrhizus, UniProt P61872); experiment: interfacial kinetics, p-nitrophenol release from emulsified pNPP; assay type: biochemical; settings: heterogeneous (emulsion) medium; free purified enzyme; value not given
T1 construct: Pichia pastoris GS115, secreted, purified; proROL without signal peptide cleaved Kex2-like; about 37 kDa on SDS-PAGE
T1 sequence (P61872 96-392): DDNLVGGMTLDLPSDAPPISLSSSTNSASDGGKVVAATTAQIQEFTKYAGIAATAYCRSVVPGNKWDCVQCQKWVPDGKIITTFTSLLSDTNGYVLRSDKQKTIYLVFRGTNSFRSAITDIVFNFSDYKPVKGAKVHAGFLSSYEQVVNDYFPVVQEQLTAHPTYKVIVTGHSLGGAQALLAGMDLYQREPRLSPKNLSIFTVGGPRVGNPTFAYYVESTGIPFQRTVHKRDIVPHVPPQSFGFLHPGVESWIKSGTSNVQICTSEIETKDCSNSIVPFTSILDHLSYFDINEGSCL

mROL = target: T2, mROL (Rhizopus arrhizus, UniProt P61872); experiment: residual activity after heat treatment, pNPP assay; assay type: biochemical; settings: turnover only; 1 h pre-incubation at 40 °C
T2 sequence (P61872 124-392): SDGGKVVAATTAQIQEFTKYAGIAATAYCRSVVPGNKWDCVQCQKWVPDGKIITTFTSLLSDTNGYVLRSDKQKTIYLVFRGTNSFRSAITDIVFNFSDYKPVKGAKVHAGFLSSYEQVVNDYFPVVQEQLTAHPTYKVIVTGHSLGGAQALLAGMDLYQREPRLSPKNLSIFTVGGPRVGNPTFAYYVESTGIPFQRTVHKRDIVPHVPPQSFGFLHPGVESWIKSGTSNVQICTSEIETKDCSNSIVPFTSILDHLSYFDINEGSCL

CCCCCCCCCCCCCCCC(=O)Oc1ccc([N+](=O)[O-])cc1 [p-nitrophenyl palmitate]
Km* (r28ROL): The kinetic parameters were determined using p-nitrophenyl palmitate (pNPP) as substrate. | residual activity after heat treatment, pNPP assay (mROL): thermostability of the mature R. oryzae lipase by P. pastoris in this study
